Patent publication US20110033946A1, “DETECTION OF SHORT-CHAIN FATTY ACIDS IN BIOLOGICAL SAMPLES” (HEMAQUEST PHARMACEUTICALS, INC., priority 2009, published 2011)
Where “and” joins values, the source holds several entries; their conditions need not be identical. Identical values can stand only once. Like-named read-outs stand apart in the source and are kept apart here.

Assays:
[1] = Freeze/thaw cycle stability in human plasma; assay type: physicochemical; settings: three freeze/thaw cycles at approximately −70° C.
Description: (§1) The following samples were also analyzed either in conjunction with one of the precision and accuracy runs or in one of the additional validation runs. Samples from six lots of control human plasma for specificity. Samples from six lots of control human plasma fortified with internal standard for specificity. Two concentration levels of unextracted QC-samples in triplicate (solvent standards) were analyzed for the evaluation of the recovery of sodium 2,2-dimethylbutyrate and DMV in human plasma. Two levels of QC samples (Low QC and High QC in triplicate) were subjected to three freeze/thaw cycles at approximately −70° C. prior to extraction to evaluate freeze/thaw stability. Two levels of QC samples (Low QC and High QC in triplicate) were placed on the bench top for approximately 17 hours prior to extraction for the evaluation of the bench top stability. Triplicate low QC samples and triplicate high QC samples were stored for one month and three months in a freezer at approximately −70° C., and then extracted and analyzed to evaluate long term stability in human plasma. Two levels of extracted QC samples (Low QC and High QC) were re-analyzed after approximately 71 hours in the autosampler at room temperature to evaluate the extract autosampler stability. Two levels of extracted QC samples (Low QC and High QC) were re-analyzed after approximately 8 hours in the freezer at approximately −20° C. to evaluate the extract freeze stability. Three aliquots of a dilution QC sample diluted 10-fold. Triplicate dilutions of the old stock solution (stored at approximately 4° C.) and new stock solutions prepared at intervals of two weeks and one month. Statistical calculations in the report tables were calculated from unrounded concentration values taken directly from the raw data. The concentration values were rounded for display purposes.
The stability of sodium 2,2-dimethylbutyrate in human plasma was evaluated at approximately −70° C. for three cycles using QC-Low and QC-High samples in triplicate. The freeze time was at least 12 to 24 hours, with a minimum thaw time of one hour. The CV % values for the QC-Low and QC-High stability samples are 3.3% and 9.8%, respectively. To calculate the RE %, the measured mean concentration was compared to the nominal concentration. The RE % values for the QC-Low and QC-High stability samples are 2.3% and −5.5%, respectively.

[2] = assay type: physicochemical, human; settings: for Extract freezer stability, Mean concentration / Extract freezer stability, RE % (mean vs nominal): human, 8 h
Description: as §1
QC-Low and QC-High extract samples in triplicate were analyzed and then stored in a −20° C. freezer for approximately 8 hours. These QC samples were then re-analyzed to evaluate the extract freezer stability. The CV % values for the QC-Low and QC-High stability samples are 8.6% and 1.2%, respectively. To calculate the RE %, the measured mean concentration was compared to the nominal concentration. The RE % values for the QC-Low and QC-High stability samples are −6.3% and −13.0%, respectively.

[3] = assay type: physicochemical, human; settings: for Long-term freezer stability, Mean concentration / Long-term freezer stability, RE % (mean vs nominal): human
Description: as §1
QC-Low and QC-High plasma samples, which had been stored in a freezer at approximately −70° C. for one month and three months, were extracted in triplicate and analyzed. The CV % values for the QC-Low and QC-High stability samples range from 4.0% to 11.1%. To calculate the RE %, the measured mean concentration was compared to the nominal concentration. The RE % values for the QC-Low and QC-High stability samples range from −13.7% to 4.1%. All CV % values and RE % values are within the acceptance criteria (≦15% and ±15% respectively).

[4] = assay type: physicochemical, rat; settings: for Mean concentration, QC-Low / RE %, QC-Low / Measured concentration, QC-Low: nominal 0.60 μg/mL; for Measured concentration, QC-Low / Measured concentration, QC-High: individual replicates; for Mean concentration, QC-High / RE %, QC-High / Measured concentration, QC-High: nominal 40.0 μg/mL; for Long-term freezer stability, RE %: rat, 0.6 μg/mL
Description: For the remaining validation tests, a calibration curve and triplicates QCs at the low, mid and high levels were analyzed with each sample set. The following samples were also analyzed either in conjunction with one of the precision and accuracy runs or in one of the additional validation runs: Samples from six lots of control rat plasma for specificity; Samples from six lots of control rat plasma fortified with internal standard for specificity; Two concentration levels of unextracted QC-samples in triplicate (solvent standards) were analyzed for the evaluation of the recovery of sodium 2,2-dimethylbutyrate and DMV in rat plasma; Two levels of QC samples (Low QC and High QC in triplicate) were subjected to three freeze/thaw cycles at approximately −70° C. prior to extraction to evaluate freeze/thaw stability; Two levels of QC samples (Low QC and High QC in triplicate) were placed on the bench top for approximately 17 hours prior to extraction for the evaluation of the bench top stability; Triplicate low QC samples and triplicate high QC samples were stored for one month and three months in a freezer at approximately −70° C., and then extracted and analyzed to evaluate long term stability in rat plasma; Three aliquots of a dilution QC sample diluted 10-fold.
QC-Low and QC-High plasma samples, which had been stored in a freezer at approximately −70° C. for one month and three months (98 days), were extracted in triplicate and analyzed. At the one month interval, the RE % was −24.1% for the QC-Low level. This may have been an anomaly since at the QC-Low level for the three month interval, the RE % was 4.1%. All CV % values and RE % values at the 98 day interval were within the acceptance criteria (≦15% and ±15% respectively). Therefore, sodium 2,2-dimethylbutyrate can be considered stable in rat plasma at approximately −70° C. for at least […].

[5] = rat plasma, approximately −70° C., 1 Month Interval
[6] = rat plasma, approximately −70° C., 3 Month Interval

Structure (SMILES): CCC(C)(C)C(=O)[O-].[Na+] [Sodium 2,2-Dimethylbutyrate]
- Stability after freeze/thaw cycles [1]: stable
- Freeze/thaw cycle stability, Mean concentration ([1]; QC-High, nominal 40.0 μg/mL): 37.8 µg/mL
- Freeze/thaw cycle stability, RE % (mean vs nominal) ([1]; QC-High, nominal 40.0 μg/mL): −5.5%
- Freeze/thaw cycle stability, concentration found (replicate) ([1]; QC-High, nominal 40.0 μg/mL): 41.9 µg/mL and 36.8 µg/mL and 34.7 µg/mL
- Freeze/thaw cycle stability, Mean concentration ([1]; QC-Low, nominal 0.60 μg/mL): 0.614 µg/mL
- Freeze/thaw cycle stability, RE % (mean vs nominal) ([1]; QC-Low, nominal 0.60 μg/mL): 2.3%
- Freeze/thaw cycle stability, concentration found (replicate) ([1]; QC-Low, nominal 0.60 μg/mL): 0.615 µg/mL and 0.593 µg/mL and 0.633 µg/mL
- Time stable in the extract in the freezer ([2]; human plasma extract, freezer at −20° C.): at least 8 hours
- Extract freezer stability, Mean concentration ([2]; 0.6 μg/mL): 0.562 µg/mL
- Extract freezer stability, RE % (mean vs nominal) ([2]; 0.6 μg/mL): −6.3%
- Extract freezer stability, Mean concentration ([2]; 40 μg/mL): 34.8 µg/mL
- Extract freezer stability, RE % (mean vs nominal) ([2]; 40 μg/mL): −13.0%
- Time stable in freezer ([3]; human plasma, approximately −70° C.): up to three months
- Long-term freezer stability, Mean concentration ([3]; 1 month, 0.6 μg/mL): 0.552 µg/mL
- Long-term freezer stability, RE % (mean vs nominal) ([3]; 1 month, 0.6 μg/mL): −7.9%
- Long-term freezer stability, Mean concentration ([3]; 1 month, 40 μg/mL): 38.2 µg/mL
- Long-term freezer stability, RE % (mean vs nominal) ([3]; 1 month, 40 μg/mL): −4.6%
- Long-term freezer stability, Mean concentration ([3]; 3 months, 0.6 μg/mL): 0.624 µg/mL
- Long-term freezer stability, RE % (mean vs nominal) ([3]; 3 months, 0.6 μg/mL): 4.1%
- Long-term freezer stability, Mean concentration ([3]; 3 months, 40 μg/mL): 34.5 µg/mL
- Long-term freezer stability, RE % (mean vs nominal) ([3]; 3 months, 40 μg/mL): −13.7%
- Mean concentration, QC-Low [4, 5]: 0.456 µg/mL
- RE %, QC-Low [4, 5]: −24.1%
- Measured concentration, QC-Low [4, 5]: 0.410 µg/mL and 0.484 µg/mL and 0.473 µg/mL
- Mean concentration, QC-High [4, 5]: 34.7 µg/mL
- RE %, QC-High [4, 5]: −13.3%
- Measured concentration, QC-High [4, 5]: 35.4 µg/mL and 34.3 µg/mL and 34.4 µg/mL
- Mean concentration, QC-Low [4, 6]: 0.62 µg/mL
- RE %, QC-Low [4, 6]: 4.1%
- Measured concentration, QC-Low [4, 6]: 0.663 μg/mL and 0.605 μg/mL (2×)
- Mean concentration, QC-High [4, 6]: 37.2 µg/mL
- RE %, QC-High [4, 6]: −7.1%
- Measured concentration, QC-High [4, 6]: 38.0 μg/mL (2×) and 35.5 μg/mL
- Time stable in freezer ([4]; rat plasma, approximately −70° C.): at least 99 days
- Long-term freezer stability, RE % ([4]; 1 month): −24.1%
- Long-term freezer stability, RE % ([4]; 98 days): 4.1%
